# Test results taken from ChEMBL document CHEMBL1201862, “PubChem BioAssay data set” (2004).
#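 1) Cells in 96-well plates. 2) Compound, 48 h, 5 concentrations. 3) Linear interpolation between surrounding doses. 4) Unreached endpoint = highest concentration. GI50 is the concentration that inhibits growth by half.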 Calls of active or inactive are those of the source. Cut-off read from the data, not from the text of the source: active = GI50 up to about 1.1 µM and inactive = higher.
# Legend:
# Experiment in all cases: growth of human tumour cells (NCI), 48 h
# [1] = test system: 786-0
# [2] = test system: HOP-62
# [3] = test system: RXF 393
# [4] = test system: SF-539
# [5] = test system: OVCAR-8
# [6] = test system: LXFL 529
# [7] = test system: Malme-3M
# [8] = test system: SF-295
# [9] = test system: HOP-92
# [10] = test system: HL-60
# [11] = test system: HCT-15
# [12] = test system: SNB-78
# [13] = test system: HCT-116
# [14] = test system: UO-31
# [15] = test system: KM-20L2
# [16] = test system: HOP-18
# [17] = test system: EKVX
# [18] = test system: NCI-H226
# [19] = test system: UACC-62
# [20] = test system: MOLT-4
# [21] = test system: UACC-257
# [22] = test system: HCC 2998
# [23] = test system: SF-268
# [24] = test system: CCRF-CEM
# [25] = test system: K562
# [26] = test system: M19-MEL
# [27] = test system: OVCAR-4
# [28] = test system: IGROV-1
# [29] = test system: SK-OV-3
# [30] = test system: SN12C
# [31] = test system: OVCAR-5
# [32] = test system: SK-MEL-28
# [33] = test system: SNB-75
# [34] = test system: TK-10
# [35] = test system: A549
# [36] = test system: HT-29
# [37] = test system: LOX IMVI
# [38] = test system: RPMI-8226
# [39] = test system: ACHN
# [40] = test system: DLD-1
# [41] = test system: A498
# [42] = test system: XF498
# [43] = test system: SK-MEL-2
# [44] = test system: SW-620
# [45] = test system: SK-MEL-5
# [46] = test system: CAKI-1
# [47] = test system: DMS-114
# [48] = test system: NCI-H460
# [49] = test system: COLO 205
# [50] = test system: NCI-H23
# [51] = test system: M14
# [52] = test system: KM12
# [53] = test system: OVCAR-3
# [54] = test system: SNB-19
# [55] = test system: DMS-273
# [56] = test system: U-251
# [57] = test system: SR
smiles,measurement,setting,value
CC1NCCc2c1[nH]c1cc(O)ccc21 (stereo unspecified),GI50,[1],> 100 µM (inactive)
same,GI50,[2],> 100 µM (inactive)
same,GI50,[3],> 100 µM (inactive)
same,GI50,[4],> 100 µM (inactive)
same,GI50,[5],> 100 µM (inactive)
same,GI50,[6],> 100 µM (inactive)
same,GI50,[7],> 100 µM (inactive)
same,GI50,[8],> 100 µM (inactive)
same,GI50,[9],> 100 µM (inactive)
same,GI50,[10],> 100 µM (inactive)
same,GI50,[11],> 100 µM
same,GI50,[12],> 100 µM (inactive)
same,GI50,[13],> 100 µM (inactive)
same,GI50,[14],> 100 µM (inactive)
same,GI50,[15],> 100 µM (inactive)
same,GI50,[16],> 100 µM (inactive)
same,GI50,[17],> 100 µM (inactive)
same,GI50,[18],> 100 µM (inactive)
same,GI50,[19],> 100 µM (inactive)
same,GI50,[20],> 100 µM (inactive)
same,GI50,[21],> 100 µM (inactive)
same,GI50,[22],> 100 µM (inactive)
same,GI50,[23],> 100 µM (inactive)
same,GI50,[24],> 100 µM (inactive)
same,GI50,[25],> 100 µM (inactive)
same,GI50,[26],> 100 µM (inactive)
same,GI50,[27],> 100 µM (inactive)
same,GI50,[28],> 100 µM (inactive)
same,GI50,[29],> 100 µM (inactive)
same,GI50,[30],> 100 µM (inactive)
same,GI50,[31],> 100 µM (inactive)
same,GI50,[32],> 100 µM (inactive)
same,GI50,[33],> 100 µM (inactive)
same,GI50,[34],> 100 µM (inactive)
same,GI50,[35],> 100 µM (inactive)
same,GI50,[36],> 100 µM (inactive)
same,GI50,[37],> 100 µM (inactive)
same,GI50,[38],> 100 µM (inactive)
same,GI50,[39],> 100 µM (inactive)
same,GI50,[40],> 100 µM (inactive)
same,GI50,[41],> 100 µM (inactive)
same,GI50,[42],> 100 µM (inactive)
same,GI50,[43],> 100 µM (inactive)
same,GI50,[44],> 100 µM (inactive)
same,GI50,[45],> 100 µM (inactive)
same,GI50,[46],> 100 µM (inactive)
same,GI50,[47],> 100 µM (inactive)
same,GI50,[48],> 100 µM (inactive)
same,GI50,[49],> 100 µM (inactive)
same,GI50,[50],> 100 µM (inactive)
same,GI50,[51],> 100 µM (inactive)
same,GI50,[52],> 100 µM (inactive)
same,GI50,[53],> 100 µM (inactive)
same,GI50,[54],> 100 µM (inactive)
C[C@@H](NC1CCC[C@@H]1O)c1ccccc1 (stereo partly specified),GI50,[1],> 100 µM (inactive)
same,GI50,[2],> 100 µM (inactive)
same,GI50,[3],> 100 µM (inactive)
same,GI50,[5],> 100 µM (inactive)
same,GI50,[55],> 100 µM (inactive)
same,GI50,[6],> 100 µM (inactive)
same,GI50,[7],> 100 µM (inactive)
same,GI50,[8],> 100 µM (inactive)
same,GI50,[9],> 100 µM (inactive)
same,GI50,[10],> 100 µM (inactive)
same,GI50,[11],> 100 µM
same,GI50,[12],> 100 µM (inactive)
same,GI50,[13],> 100 µM (inactive)
same,GI50,[14],> 100 µM (inactive)
same,GI50,[15],> 100 µM (inactive)
same,GI50,[16],> 100 µM (inactive)
same,GI50,[17],> 100 µM (inactive)
same,GI50,[18],> 100 µM (inactive)
same,GI50,[19],> 100 µM (inactive)
same,GI50,[20],> 100 µM (inactive)
same,GI50,[21],> 100 µM (inactive)
same,GI50,[22],> 100 µM (inactive)
same,GI50,[24],> 100 µM (inactive)
same,GI50,[25],> 100 µM (inactive)
same,GI50,[56],> 100 µM (inactive)
same,GI50,[26],> 100 µM (inactive)
same,GI50,[27],> 100 µM (inactive)
same,GI50,[28],> 100 µM (inactive)
same,GI50,[29],> 100 µM (inactive)
same,GI50,[30],> 100 µM (inactive)
same,GI50,[31],> 100 µM (inactive)
same,GI50,[32],> 100 µM (inactive)
same,GI50,[33],> 100 µM (inactive)
same,GI50,[34],> 100 µM (inactive)
same,GI50,[35],> 100 µM (inactive)
same,GI50,[36],> 100 µM (inactive)
same,GI50,[37],> 100 µM (inactive)
same,GI50,[38],> 100 µM (inactive)
same,GI50,[39],> 100 µM (inactive)
same,GI50,[40],> 100 µM (inactive)
same,GI50,[42],> 100 µM (inactive)
same,GI50,[43],> 100 µM (inactive)
same,GI50,[44],> 100 µM (inactive)
same,GI50,[45],> 100 µM (inactive)
same,GI50,[46],> 100 µM (inactive)
same,GI50,[47],> 100 µM (inactive)
same,GI50,[48],> 100 µM (inactive)
same,GI50,[49],> 100 µM (inactive)
same,GI50,[51],> 100 µM (inactive)
same,GI50,[52],> 100 µM (inactive)
same,GI50,[53],> 100 µM (inactive)
same,GI50,[54],> 100 µM (inactive)
O=S(=O)(N/N=C/c1ccc(Cl)c(Cl)c1)c1ccccc1,GI50,[1],31.8 µM (inactive)
same,GI50,[2],35.7 µM (inactive)
same,GI50,[3],18.5 µM (inactive)
same,GI50,[4],44.8 µM (inactive)
same,GI50,[5],25.7 µM (inactive)
same,GI50,[57],42.3 µM (inactive)
same,GI50,[55],37.7 µM (inactive)
same,GI50,[6],30.4 µM (inactive)
same,GI50,[7],> 100 µM (inactive)
same,GI50,[8],33.9 µM (inactive)
same,GI50,[9],9.82 µM (inactive)
same,GI50,[10],26.6 µM (inactive)
same,GI50,[11],36.1 µM
same,GI50,[12],41.5 µM (inactive)
same,GI50,[13],35.1 µM (inactive)
same,GI50,[14],27 µM (inactive)
same,GI50,[15],62.1 µM (inactive)
same,GI50,[16],36.3 µM (inactive)
same,GI50,[17],64.9 µM (inactive)
same,GI50,[18],58.5 µM (inactive)
same,GI50,[19],46.2 µM (inactive)
same,GI50,[20],28.1 µM (inactive)
same,GI50,[21],38.8 µM (inactive)
same,GI50,[22],30.2 µM (inactive)
same,GI50,[23],31 µM (inactive)
same,GI50,[24],48.1 µM (inactive)
same,GI50,[25],33.5 µM (inactive)
same,GI50,[56],33.7 µM (inactive)
same,GI50,[26],37.3 µM (inactive)
same,GI50,[27],55 µM (inactive)
same,GI50,[28],33.3 µM (inactive)
same,GI50,[29],39.7 µM (inactive)
same,GI50,[30],37.7 µM (inactive)
same,GI50,[31],38.2 µM (inactive)
same,GI50,[32],72.3 µM (inactive)
same,GI50,[33],52 µM (inactive)
same,GI50,[34],41.7 µM (inactive)
same,GI50,[35],39.7 µM (inactive)
same,GI50,[36],40.1 µM (inactive)
same,GI50,[37],43.9 µM (inactive)
same,GI50,[38],47 µM (inactive)
same,GI50,[39],43.1 µM (inactive)
same,GI50,[40],31.3 µM (inactive)
same,GI50,[41],26.1 µM (inactive)
same,GI50,[42],32.2 µM (inactive)
same,GI50,[43],34.2 µM (inactive)
same,GI50,[44],53 µM (inactive)
same,GI50,[45],54 µM (inactive)
same,GI50,[46],33.2 µM (inactive)
same,GI50,[47],23.8 µM (inactive)
same,GI50,[49],21.6 µM (inactive)
same,GI50,[50],36.3 µM (inactive)
same,GI50,[51],60.3 µM (inactive)
same,GI50,[52],29 µM (inactive)
same,GI50,[53],24.5 µM (inactive)
